One assay concerns B16 melanoma. Kind of assay: B16 melanoma injectable model of experimental lung metastasis. The class given is in vivo, mice. The note with it: 700 ng i.v. 5 minutes prior to tumor cell injection. An excerpt: (§1) Tinzaparin is a low molecular weight heparin that is produced by heparinase depolymerization of unfractionated heparin allowing for its relatively high sulfate to carboxylate ratio. Beyond its potent plasmatic effects on ATIII-dependent coagulation factors, Tinzaparin is a very effective LMWH in causing the release of TFPI from the endothelial cells, the natural inhibitor of tissue factor pro-coagulant and non-coagulant effects. The present study was undertaken to investigate the effect of the LMWH, Tinzaparin as well as recombinant TFPI on experimental lung metastasis. […] In a second experimental group, in addition to the initial (pre-tumor cell) dose, subcutaneous Tinzaparin (10 mg/kg) was administered daily for 14 days at which time lung seeding was assessed. In the latter group, lung tumor formation was reduced by 96% (P<0.001). […] In order to determine the anticoagulant activity of Tinzaparin, 4 hrs after a single subcutaneous dose, whole blood re-calcification was measured using a Sonoclot Analyzer. Tinzaparin (10 mg/kg S.C.) prolonged the clotting time 4 fold. Furthermore, measuring the platelet count (a sensitive marker of intravascular coagulation) before and 15 minutes determined the effect of Tinzaparin on tumor cell-induced clotting activation in vivo after tumor cell injection in control and Tinzaparin-treated animals. […]

Assay [1] has as its system tumor cell-induced thrombocytopenia. As to the kind of experiment: Tumor cell-induced clotting activation in vivo (platelet count). On the set-up: species or system mice. The note with it: 700 ng i.v. 5 minutes prior to tumor cell injection.
Excerpt: as §1

Assay [2] deals with endothelial cell tube formation. The note with it: concentration-dependent; cited from earlier work.
Assay [3] relates to colon carcinoma (HCT-116). The note with it: CAM model; cited from earlier work.

Consider “r-TFPI: recombinant tissue factor pathway inhibitor”, for which, in the assay with B16 melanoma, the “reduction of B16 lung metastasis” value stood at 85%. Besides, the “effect on tumor cell induced thrombocytopenia” value in assay [1] is listed as “abolished tumor cell induced thrombocytopenia”. The “effect on endothelial cell tube formation” value in assay [2] is “significant and comparable inhibitory effects”. For the same substance, the “inhibition of colon or lung carcinoma-induced angiogenesis, tumor growth and regression” value in assay [3] is given as “significant inhibition”.

Values taken from US6908907B2, “Prevention and treatment of tumor growth, metastasis, and thromboembolic complications in cancer patients” (priority 2002, dated 2005).
